Experimental data: patent EP4800016A1, “METTL3 INHIBITOR” (Hangzhou Bangshun Pharmaceutical Co., Ltd., priority 2023, dated 2025)

How the values were obtained:
METTL3/14 = target: T1, METTL3/14 (Homo sapiens, UniProt Q86U44); test: METTL3/14 methyltransferase activity assay (HTRF); assay type: biochemical; conditions: 10 concentrations, 3-fold dilution from 10 µM
T1 construct: purchased active motif 31570
Experimental: The final initial concentration of the compound was 10 µM, with 3-fold serial dilution to give a total of 10 concentrations. 100 nL of the compound was transferred to a 384-well plate and centrifuged at 1000 RPM. 2.5 µL of METTL3/14 (active motif, Cat No. 31570) was added to the test wells and incubated at 25°C for 10 min. 2.5 µL of METTL3-Biotin & SAM (GenScript) was added to the test wells andincubated at 25°C for 60 min. 2.5 µL of YTHDF1 (active motif, Cat No. 31608) was added to the test wells and centrifuged at 1000 RPM. 2.5 µL of Streptavidin-Tb (Perkin Elmer Cat No. 61SATLB) & Flag-mede (Perkin Elmer Cat No. 61FG2DLA) was added to the test wells and centrifuged at 1000 RPM. Incubated at 25°C for 60 min. HTRF was measured using a Plate reader. The results of each compound are shown in Table 1, where A+indicates <10nM, A indicates 10-100nM, B indicates 100-1000nM, and C indicates >1000nM.

Kasumi-1 cells = test: Kasumi-1 cell inhibitory activity (CellTiter-Glo, 5 days); assay type: cell-based; conditions: Homo sapiens, 120 h, 5 days incubation, CellTiter-Glo luminescence
Experimental: Test compounds were dissolved in DMSO to prep are a 250×final concentration solution. The initial concentration was 10 µM with 3-fold dilution, resulting in a total of ten concentration points. 4 µL of the compound solution was added to 96 µL of cell culture medium to dilute it to 10×the final concentration. On the first day, Kasumi-1 cells (purchased from Precedo) were suspended in cell culture medium at the desired density, 90 µL of the cell suspension was added to a 96-well plate, and 10 µL of 10×compound solution was added for incubation, with a final DMSO concentration of 0.4% in each well. Incubated at 37 °C, 5% CO2 for 5 days. Before measurement after 5 days, the test plate was placed at room temperature, 50 µL of CellTiter-Glo® reagent (purchased from Promega, Cat. No. G7573) was added, mixed on a shaker for 2 minutes to lyse the cells, and incubated at room temperature for 10 minutes to stabilize the […] signal. Luminescence values were recorded using Paradigm, and the response-concentration curve was fitted with Graphpad Pr ism 8.0 to calculate IC50values. The results of each compound are shown in Table2, where A indicates <100nM, B indicates 100-1000nM, and C indicates >1000nM. [formula]

T1 sequence (Q86U44 whole entry): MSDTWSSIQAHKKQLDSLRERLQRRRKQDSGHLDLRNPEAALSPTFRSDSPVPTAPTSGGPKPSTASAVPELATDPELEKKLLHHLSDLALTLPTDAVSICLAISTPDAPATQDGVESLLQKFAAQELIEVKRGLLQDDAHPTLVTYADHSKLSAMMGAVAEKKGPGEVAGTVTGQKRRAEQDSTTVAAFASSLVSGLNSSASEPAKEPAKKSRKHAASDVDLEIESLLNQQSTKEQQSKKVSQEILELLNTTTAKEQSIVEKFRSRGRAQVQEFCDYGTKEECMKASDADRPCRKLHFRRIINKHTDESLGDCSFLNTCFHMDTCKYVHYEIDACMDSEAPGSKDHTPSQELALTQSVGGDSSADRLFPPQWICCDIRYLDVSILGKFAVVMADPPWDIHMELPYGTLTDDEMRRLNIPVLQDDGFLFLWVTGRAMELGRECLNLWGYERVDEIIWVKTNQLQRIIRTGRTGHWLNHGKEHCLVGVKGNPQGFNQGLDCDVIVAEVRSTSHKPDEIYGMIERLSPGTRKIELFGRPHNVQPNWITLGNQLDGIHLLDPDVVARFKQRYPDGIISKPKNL
T1 sequence (Q9HCE5 whole entry partner): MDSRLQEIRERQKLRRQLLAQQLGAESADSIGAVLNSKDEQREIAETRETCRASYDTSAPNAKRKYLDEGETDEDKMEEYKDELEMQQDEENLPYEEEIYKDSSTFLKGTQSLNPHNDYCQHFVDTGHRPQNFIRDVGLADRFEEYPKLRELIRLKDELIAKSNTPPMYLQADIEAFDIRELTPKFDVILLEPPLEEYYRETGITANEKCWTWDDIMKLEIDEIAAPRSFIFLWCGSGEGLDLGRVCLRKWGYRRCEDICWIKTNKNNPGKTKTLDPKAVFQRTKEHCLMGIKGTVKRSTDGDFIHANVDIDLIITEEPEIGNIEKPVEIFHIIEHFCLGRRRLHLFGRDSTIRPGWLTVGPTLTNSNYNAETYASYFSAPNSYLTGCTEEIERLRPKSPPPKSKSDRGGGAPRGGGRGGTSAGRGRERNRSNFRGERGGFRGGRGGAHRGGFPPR

SMILES	IC50 (METTL3/14) [nM]	IC50 (Kasumi-1 cells) [nM]
O=C(NCc1ccc2cc(CNCC34CC(F)(C3)C4)[nH]c2c1)c1cc(=O)n2cc3c(cc2n1)OCCO3 [Example 46, N-((2-((((3-Fluorobicyclo[1.1.1]pentan-1-yl)methyl)amino)methyl)-1H-indol-6-yl)methyl)-9-oxo-2,3-dihydro-9H-[1,4]dioxolo[2',3':4,5]pyrido[1,2-a]pyrimidine-7-carboxamide]	< 10	< 100
O=C(NCc1ccc2cc(CNC3CCC(F)(F)C3)[nH]c2c1)c1cc(=O)n2cc3c(cc2n1)OCO3 (stereo not shown) [Example 38, N-((2-(((3,3-Difluorocyclopentyl)amino)methyl)-1H-indol-6-yl)methyl)-8-oxo-8H-[1,3]dioxolo[4',5':4,5]pyrido[1,2-a]pyrimidine-6-carboxamide]	< 10	100 to 1000
O=C(NCc1ccc2cc(CNCC3CCC3)[nH]c2c1)c1cn2ncc3c2c(n1)NCCO3 [Example 44, N-((2-(((Cyclobutylmethyl)amino)methyl)-1H-indol-6-yl)methyl)-7,8-dihydro-6H-9-oxa-2,2a,5,6-tetraazabenzo[cd]azulene-4-carboxamide]	10 to 100	100 to 1000
O=C(NCc1ccc2cc(CNCC34CC(F)(C3)C4)[nH]c2c1)c1cc(=O)n2cc3c(cc2n1)OCO3 [Example 36, N-((2-((((3-Fluorobicyclo[1.1.1]pentan-1-yl)methyl)amino)methyl)-1H-indol-6-y1)methyl)-8-oxo-8H-[1,3]dioxolo[4',5':4,5]pyrido[1,2-a]pyrimidine-6-carboxamide]	< 10	< 100
CC1(CNCc2cc3ccc(CNC(=O)c4cc(=O)n5cc6c(cc5n4)OCCO6)cc3[nH]2)CCC1 [Example 52, N-((2-((((1-Methylcyclobutyl)methyl)amino)methyl)-1H-indol-6-yl)methyl)-9-oxo-2,3-dihydro-9H-[1,4]dioxino[2',3':4,5]pyrido[1,2-a]pyrimidine-7-carboxamide]	< 10	100 to 1000
O=C(NCc1cc2[nH]c(CNCC34CC(CO3)C4)cc2cc1F)c1cc(=O)n2cc3c(cc2n1)OCCO3 [Example 86, N-((2-((((2-Oxabicyclo[2.1.1]hexan-1-yl)methyl)amino)methyl)-5-fluoro-1H-indol-6-yl)methyl)-9-oxo-2,3-dihydro-9H-[1,4]dioxino[2',3':4,5]pyrido[1,2-a]pyrimidine-7-carboxamide]	10 to 100	100 to 1000
[2H]C([2H])(NCc1cc2cc(F)c(CNC(=O)c3cc(=O)n4cc5c(cc4n3)OCCO5)cc2[nH]1)C1CCC1 [Example 90, N-((2-(((Cyclobutylmethyl-d2)amino)methyl)-5-fluoro-1H-indol-6-yl)methyl)-9-oxo-2,3-dihydro-9H-[1,4]dioxino[2',3':4,5]pyrido[1,2-a]pyrimidine-7-carboxamide]	< 10	< 100
O=C(NCc1ccc2cc(CNCC3CCC3)[nH]c2c1)c1cc(=O)n2cc3c(cc2n1)OCCO3 [Example 20, N-((2-(((Cyclobutylmethyl)amino)methyl)-1H-indol-6-yl)methyl)-9-oxo-2,3-dihydro-9H-[1,4]dioxolo[2',3':4,5]pyrido[1,2-a]pyrimidine-7-carboxamide]	10 to 100	100 to 1000
CC1(CNCc2cc3ccc(CNC(=O)c4cc(=O)n5cc6c(cc5n4)OCO6)cc3[nH]2)CCC1 [Example 51, N-((2-((((1-Methylcyclobutyl)methyl)amino)methyl)-1H-indol-6-yl)methyl)-8-oxo-8H-[1,3]dioxolo[4',5':4,5]pyrido[1,2-a]pyrimidine-6-carboxamide]	< 10	100 to 1000
O=C(NCc1ccc2cc(CNCC34CC(CO3)C4)[nH]c2c1)c1cc(=O)n2cc3c(cc2n1)OCCO3 [Example 77, N-((2-((((2-oxabicyclo[2.1.1]hexan-1-yl)methyl)amino)methyl)-1H-indol-6-yl)methyl)-9-oxo-2,3-dihydro-9H-[1,4]dioxino[2',3':4,5]pyrido[1,2-a]pyrimidin-7-carboxamide]	< 10	100 to 1000
O=C(NCc1cc2[nH]c(CNCC3CCC3)cc2cc1F)c1cc(=O)n2cc3c(cc2n1)OCCO3 [Example 85, N-((2-(((Cyclobutylmethyl)amino)methyl)-5-fluoro-1H-indol-6-yl)methyl)-9-oxo-2,3-dihydro-9H-[1,4]dioxino[2',3':4,5]pyrido[1,2-a]pyrimidine-7-carboxamide]	10 to 100	< 100
[2H]C([2H])(NCc1cc2ccc(CNC(=O)c3cc(=O)n4cc5c(cc4n3)OCCO5)cc2[nH]1)C12CC(CO1)C2 [Example 91, N-((2-((((2-Oxabicyclo[2.1.1]hexan-1-yl)methyl-d2)amino)methyl)-1H-indol-6-yl)methyl)-9-oxo-2,3-dihydro-9H-[1,4]dioxino[2',3':4,5]pyrido[1,2-a]pyrimidine-7-carboxamide]	10 to 100	100 to 1000
[2H]C([2H])(NCc1cc2cc(F)c(CNC(=O)c3cc(=O)n4cc5c(cc4n3)OCO5)cc2[nH]1)C12CC(CO1)C2 [Example 93, N-((2-((((2-Oxabicyclo[2.1.1]hexan-1-yl)methyl-d2)amino)methyl)-5-fluoro-1H-indol-6-yl)methyl)-8-oxo-8H-[1,3]dioxolo[4',5':4,5]pyrido[1,2-a]pyrimidine-6-carboxamide]	10 to 100	100 to 1000
CC1(CNCc2cc3ccc(CNC(=O)c4cc(=O)n5cc6c(cc5n4)OCCO6)cc3[nH]2)CC(F)(F)C1 [Example 54, N-((2-((((3,3-Difluoro-1-methylcyclobutyl)methyl)amino)methyl)-1H-indol-6-yl)methyl)-9-oxo-2,3-dihydro-9H-[1,4]dioxino[2',3':4,5]pyrido[1,2-a]pyrimidine-7-carboxamide]	< 10	100 to 1000
O=C(NCc1ccc2cc(CN3CCC(F)(F)CC3)[nH]c2c1)c1cc(=O)n2cc3c(cc2n1)OCCO3 [Example 27]	10 to 100	
O=C(NCc1ccc2cc(CNCC3CCC3)[nH]c2c1)c1cn2nccc2c(N2CCCC2)n1 [Example 15, N-((2-(((Cyclobutylmethyl)amino)methyl)-1H-indol-6-yl)methyl)-4-(pyrrolidin-1-yl)pyrazolo[1,5-a]pyrazine-6-carboxamide]	100 to 1000	
O=C(NCc1ccc2cc(CNCC34CCCC3C4)[nH]c2c1)c1cc(=O)n2cc3c(cc2n1)OCO3 (stereo not shown) [Example 60, N-((2-(((Bicyclo[3.1.0]hexan-1-ylmethyl)amino)methyl)-1H-indol-6-yl)methyl)-8-oxo-8H-[1,3]dioxolo[4',5':4,5]pyrido[1,2-a]pyrimidine-6-carboxamide]	< 10	
COc1ccc(CNc2nc(C(=O)NCc3ccc4cc(CNCC5CCC5)[nH]c4c3)cn3nccc23)cc1 [Example 14, N-((2-(((Cyclobutylmethyl)amino)methyl)-1H-indol-6-yl)methyl)-4-((4-methoxybenzyl)amino)pyrazolo[1,5-a]pyrazine-6-carboxamide]	10 to 100	
CN1CCOc2cnn3cc(C(=O)NCc4ccc5cc(CNCC6CCC6)[nH]c5c4)nc1c23 [Example 59, N-((2-(((Cyclobutylmethyl)amino)methyl)-1H-indol-6-yl)methyl)-6-methyl-7,8-dihydro-6H-9-oxa-2,2a,5,6-tetraazabenzo[cd]azulene-4-carboxamide]	100 to 1000	
O=C(NCc1ccc2cc(CNC[C@@H]3CCO3)[nH]c2c1)c1cc(=O)n2cc3c(cc2n1)OCCO3 [Example 79, (S)-N-((2-(((oxetan-2-ylmethyl)amino)methyl)-1H-indol-6-yl)methyl)-9-oxo-2,3-dihydro-9H-[1,4]dioxolo[2',3':4,5]pyrido[1,2-a]pyrimidine-7-carboxamide]	10 to 100	
O=C(NCc1ccc2cc(CNCC3CCC3)[nH]c2c1)c1cc(=O)n2cc3c(cc2n1)OC(F)(F)O3 [Example 30, N-((2-(((Cyclobutylmethyl)amino)methyl)-1H-indol-6-yl)methyl)-2,2-difluoro-8-oxo-8H-[1,3]dioxolo[4',5':4,5]pyrido[1,2-a]pyrimidine-6-carboxamide]	10 to 100	
O=C(NCc1ccc2cc(CNCC3CCC3)[nH]c2c1)c1cnn2cccnc12 [Example 3, N-((2-(((Cyclobutylmethyl)amino)methyl)-1H-indol-6-yl)methyl)pyrazolo[1,5-a]pyrimidine-3-carboxamide]	10 to 100	
O=C(NCc1ccc2cc(CN3CCOC4(CCC4)C3)[nH]c2c1)c1cc(=O)n2cc3c(cc2n1)OCCO3 [Example 81, N-((2-((5-oxa-8-azaspiro[3.5]nonan-8-yl)methyl)-1H-indol-6-yl)methyl)-9-oxo-2,3-dihydro-9H-[1,4]dioxino[2',3':4,5]pyrido[1,2-a]pyrimidine-7-carboxamide]	100 to 1000	
